Drawing on ChEMBL document CHEMBL4414598, “Trifluorinated Pyrimidine-Based A2B Antagonists: Optimization and Evidence of Stereospecific Recognition” (J Med Chem, 2019), this text covers inhibition, Ki and Ratio Ki for 31 compounds.

Usually inhibition stands for the share of the control response that was lost under treatment. The term Ki denotes the equilibrium dissociation constant of an inhibitor or competing ligand from its target.

The target in assay [1] is Adenosine receptor A2a (Homo sapiens, UniProt P29274). In words: Displacement of [3H]ZM241385 from human recombinant A2A receptor expressed in human HeLa cell membranes at 1 uM incubated for 30 mins by radioligand binding competition assay relative to control.
Assay [2] has as its target T1, Adenosine receptor A2b (Homo sapiens, UniProt P29275).
T1 sequence (P29275 whole entry): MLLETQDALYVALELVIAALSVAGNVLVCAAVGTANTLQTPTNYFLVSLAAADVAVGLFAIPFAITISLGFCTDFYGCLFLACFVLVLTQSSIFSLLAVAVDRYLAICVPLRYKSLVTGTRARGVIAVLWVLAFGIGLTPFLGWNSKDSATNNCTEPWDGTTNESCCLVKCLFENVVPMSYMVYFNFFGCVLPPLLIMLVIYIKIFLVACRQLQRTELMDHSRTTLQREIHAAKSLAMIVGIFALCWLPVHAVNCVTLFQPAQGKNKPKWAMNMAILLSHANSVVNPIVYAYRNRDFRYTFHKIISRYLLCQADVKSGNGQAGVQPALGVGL
In words: Displacement of [3H]DPCPX from human recombinant A2B receptor expressed in human HEK293 cell membranes incubated for 30 mins by radioligand binding competition assay. (In general: Displacement assays read how much labelled ligand stays bound in the presence of the test substance.)

Assay [3] has as its target T2, Adenosine receptor A1 (Homo sapiens) (UniProt P30542).
T2 sequence (whole entry): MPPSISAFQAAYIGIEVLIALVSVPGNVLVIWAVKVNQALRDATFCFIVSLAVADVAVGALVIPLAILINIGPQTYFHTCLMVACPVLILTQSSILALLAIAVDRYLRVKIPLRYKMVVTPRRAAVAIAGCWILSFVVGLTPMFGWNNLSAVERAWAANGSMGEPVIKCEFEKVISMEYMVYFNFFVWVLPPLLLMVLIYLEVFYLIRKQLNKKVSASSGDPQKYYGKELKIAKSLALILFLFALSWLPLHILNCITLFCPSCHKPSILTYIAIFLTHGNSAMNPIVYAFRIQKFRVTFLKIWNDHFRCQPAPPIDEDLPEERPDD
In words: Displacement of [3H]DPCPX from human recombinant A1 receptor expressed in CHOA1 cell membranes at 1 uM incubated for 60 mins by radioligand binding competition assay relative to control.

Assay [4] deals with T3, Adenosine receptor A3 (Homo sapiens) (UniProt P0DMS8).
T3 sequence (whole entry): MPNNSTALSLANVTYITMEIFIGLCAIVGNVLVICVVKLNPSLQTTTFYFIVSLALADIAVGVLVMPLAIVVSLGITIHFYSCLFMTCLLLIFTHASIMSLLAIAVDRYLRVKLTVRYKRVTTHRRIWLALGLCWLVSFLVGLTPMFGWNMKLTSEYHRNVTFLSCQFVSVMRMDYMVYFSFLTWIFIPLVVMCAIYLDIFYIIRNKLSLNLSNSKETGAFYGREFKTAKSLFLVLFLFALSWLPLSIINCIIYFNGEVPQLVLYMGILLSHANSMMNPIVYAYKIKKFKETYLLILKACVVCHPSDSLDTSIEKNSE
In words: Displacement of [3H]NECA from human A3 receptor expressed in human HeLa cell membranes at 1 uM incubated for 180 mins by radioligand binding competition assay relative to control.

The species named for assay [5] is Homo sapiens. In words: Selectivity index, ratio of Ki for displacement of [3H]NECA from human A3 receptor expressed in human HeLa cell membranes incubated for 180 mins by radioligand binding competition assay to Ki for displacement of [3H]DPCPX from human recombinant A2B receptor expressed in human HEK293 cell membranes at 1 uM incubated for 30 mins by radioligand binding competition assay.

The species entered for assay [6] is Homo sapiens. The experiment in a line: Selectivity index, ratio of Ki for displacement of [3H]DPCPX from human recombinant A1 receptor expressed in CHOA1 cell membranes incubated for 60 mins by radioligand binding competition assay to Ki for displacement of [3H]DPCPX from human recombinant A2B receptor expressed in human HEK293 cell membranes at 1 uM incubated for 30 mins by radioligand binding competition assay.

The species entered for assay [7] is Homo sapiens. The experiment in a line: Selectivity index, ratio of Ki for displacement of [3H]ZM241385 from human recombinant A2A receptor expressed in human HeLa cell membranes incubated for 30 mins by radioligand binding competition assay to Ki for displacement of [3H]DPCPX from human recombinant A2B receptor expressed in human HEK293 cell membranes at 1 uM incubated for 30 mins by radioligand binding competition assay.

The target of assay [8] is T4, Adenosine receptor A2b (Homo sapiens) (UniProt P29275).
T4 sequence (whole entry): T1 sequence (P29275 whole entry)
The experiment in a line: Displacement of [3H]DPCPX from human recombinant A2B receptor expressed in human HEK293 cell membranes at 1 uM incubated for 30 mins by radioligand binding competition assay relative to control.

Chain of Adenosine receptor A2a (P29274 whole entry): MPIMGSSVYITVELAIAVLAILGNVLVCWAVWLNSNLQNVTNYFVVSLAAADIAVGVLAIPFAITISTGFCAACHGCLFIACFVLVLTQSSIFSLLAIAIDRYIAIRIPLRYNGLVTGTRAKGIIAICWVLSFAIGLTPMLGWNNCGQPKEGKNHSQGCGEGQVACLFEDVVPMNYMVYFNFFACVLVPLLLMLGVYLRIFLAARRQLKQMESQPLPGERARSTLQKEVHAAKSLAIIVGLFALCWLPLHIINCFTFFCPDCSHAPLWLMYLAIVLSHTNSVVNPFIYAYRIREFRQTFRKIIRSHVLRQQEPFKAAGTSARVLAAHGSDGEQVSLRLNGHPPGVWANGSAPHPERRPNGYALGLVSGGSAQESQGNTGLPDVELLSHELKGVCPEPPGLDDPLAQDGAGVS

In the case of `CC1=C(C(=O)O[C@@H](C)C(F)(F)F)C(c2ccco2)n2c(nc3ccccc32)N1` (mixture of isomers), the inhibition stood at 1% in assay [1], 26% in assay [3] and 7% in assay [4]. In addition, the Ki in assay [2] was 15.1 nM.

Turning to `CC1=C(C(=O)OCC(F)(F)F)C(c2ccco2)n2c(nc3ccccc32)N1` (racemic), the figures for the inhibition in assay [1], in assay [3] and in assay [4] were 7%, 16% and 23%, respectively. Also, the inhibition constant (Ki) in assay [2] was found to be 27 nM.

For the compound `CC1=C(C(=O)OC(C)C(F)(F)F)C(c2ccoc2)n2c(nc3ccccc32)N1` (racemic), the Ratio Ki in assay [5], in assay [6] and in assay [7] was > 1000 each time. Further, the inhibition was 3% in assay [1], 2% in assay [3] and 3% in assay [4]. Also, the Ki in assay [2] was 52.3 nM.

In the case of `CC1=C(C(=O)OC(C)C(F)(F)F)C(c2ccco2)NC(=O)N1` (stereo in doubt; 14i-D1), the Ki in assay [2] stood at 61.5 nM.

Turning to `CC1=C(C(=O)OCC(F)(F)F)C(c2ccco2)NC(=O)N1` (racemic), the inhibition in assay [1] was 1%; in assay [3], 10%; in assay [4], 1%. In assay [2], the Ki was found to be 157 nM.

As for `CC(C)OC(=O)C1=C(C(F)(F)F)NC(=O)NC1c1ccco1` (racemic), the inhibition in assay [1] turned out to be 24%; in assay [3], 11%; in assay [4] it was 5%. Also, in assay [2], the Ki was found to be 238 nM.

For the compound `CCOC(=O)C1=C(C(F)(F)F)Nc2nc3ccccc3n2C1c1ccoc1` (racemic), the inhibition in assay [1] stood at 18%; in assay [3] it was 9%; in assay [4], 6%. Further, the Ki in assay [2] amounted to 37.4 nM.

Regarding `CC1=C(C(=O)OC(C)C(F)(F)F)C(c2ccco2)n2c(nc3ccccc32)N1` (racemic), the figures for the inhibition in assay [1], in assay [3] and in assay [4] were 4%, 3% and 18%, respectively. Further, in assay [2], the Ki stood at 29.6 nM.

With `CC1=C(C(=O)OC(C)C(F)(F)F)C(c2ccco2)NC(=O)N1` (stereo in doubt; 14i-D2), the Ki in assay [2] was found to be 303 nM.

Consider `CCOC(=O)C1=C(C(F)(F)F)Nc2nc3ccccc3n2C1c1ccco1` (racemic), for which the inhibition in assay [1] turned out to be 4%; in assay [3], 11%; in assay [4], 20%. In addition, in assay [2], the Ki worked out at 731 nM.

Turning to `CC1=C(C(=O)OCC(F)(F)F)C(c2ccoc2)n2c(nc3ccccc32)N1` (racemic), the Ratio Ki in assay [5], in assay [6] and in assay [7] was > 1000 throughout. Besides, the values for the inhibition in assay [1], in assay [3] and in assay [4] were 11%, 14% and 1%, respectively. For the same compound, the Ki in assay [2] was found to be 42.1 nM.

As to `CCOC(=O)C1=C(C(F)(F)F)NC(=O)NC1c1ccsc1` (racemic), the inhibition is 46% in assay [1], 32% in assay [3] and 3% in assay [4]. In assay [2], the Ki was 575 nM.

Consider `CCOC(=O)C1=C(C(F)(F)F)Nc2nc3ccccc3n2C1c1ccsc1` (racemic), for which the figures for the inhibition in assay [1], in assay [3] and in assay [4] were 13%, 16% and 29%, respectively. Also, the Ki in assay [2] came out at 118 nM.

As to `CCOC(=O)C1=C(C(F)(F)F)NC(=O)NC1c1ccoc1` (racemic), the inhibition in assay [1] amounted to 55%; in assay [3], 37%; in assay [4] it was 1%. Also, the Ki in assay [2] was 521 nM.

`CCOC(=O)C1=C(C(F)(F)F)Nc2nc3ccccc3n2[C@@H]1c1ccoc1`: the inhibition was 9% in assay [1], 11% in assay [3] and 3% in assay [4]. For the same compound, the Ki in assay [2] worked out at 13.7 nM.

For `CC(C)OC(=O)C1=C(C(F)(F)F)NC(=O)NC1c1ccoc1` (racemic), the inhibition was 37% in assay [8], 21% in assay [1], 27% in assay [3] and 1% in assay [4].

`CC1=C(C(=O)OCC(F)(F)F)C(c2ccoc2)NC(=O)N1` (racemic): the inhibition in assay [1] is 9%; in assay [3], 13%; in assay [4] it was 1%. Also, in assay [2], the Ki was determined as 588 nM.

Take `CC1=C(C(=O)O[C@@H](C)C(F)(F)F)[C@H](c2ccco2)n2c(nc3ccccc32)N1`: the inhibition in assay [8] was 35%; in assay [1], 19%; in assay [3], 7%; in assay [4], 9%.

For the compound `CC1=C(C(=O)OCC(F)(F)F)C(c2ccsc2)NC(=O)N1` (racemic), the inhibition in assay [8] worked out at 24%; in assay [1], 1%; in assay [3], 2%; in assay [4], 1%.

With `CC1=C(C(=O)O[C@H](C)C(F)(F)F)C(c2ccco2)n2c(nc3ccccc32)N1` (mixture of isomers), the inhibition in assay [1] stood at 11%; in assay [3], 12%; in assay [4] it was 23%. The Ki in assay [2] came out at 17 nM.

In the case of `CC(C)OC(=O)C1=C(C(F)(F)F)NC(=O)NC1c1ccsc1` (racemic), the figures for the inhibition in assay [1], in assay [3] and in assay [4] were 9%, 23% and 3%, respectively. Besides, the Ki in assay [2] was 651 nM.

Take `CC1=C(C(=O)OCC(F)(F)F)[C@@H](c2ccco2)n2c(nc3ccccc32)N1`: the values for the inhibition in assay [1], in assay [3] and in assay [4] were 1%, 9% and 7%, respectively. The Ki in assay [2] is 11.2 nM.

In the case of `CC1=C(C(=O)OC(C)C(F)(F)F)C(c2cccs2)NC(=O)N1` (stereo in doubt; 14k-D2), the inhibition in assay [8] was determined as 1%; in assay [1] it was 1%; in assay [3], 16%; in assay [4], 3%.

As for `CCOC(=O)C1=C(C(F)(F)F)Nc2nc3ccccc3n2C1c1cccs1` (racemic), the inhibition in assay [8] stood at 38%; in assay [1], 4%; in assay [3], 7%; in assay [4], 19%.

`CC(C)OC(=O)C1=C(C(F)(F)F)NC(=O)NC1c1cccs1` (racemic): the inhibition in assay [8] was determined as 19%; in assay [1] it was 13%; in assay [3], 8%; in assay [4], 7%.

`CC1=C(C(=O)OC(C)C(F)(F)F)C(c2ccsc2)NC(=O)N1` (stereo in doubt; 14l-D1): the inhibition constant (Ki) in assay [2] is 643 nM.

Turning to `CC1=C(C(=O)O[C@@H](C)C(F)(F)F)[C@@H](c2ccco2)n2c(nc3ccccc32)N1`, the inhibition in assay [1] is 5%; in assay [3] it was 22%; in assay [4], 21%. The Ki in assay [2] was 8.73 nM.

Regarding `CC1=C(C(=O)OC(C)C(F)(F)F)C(c2ccoc2)NC(=O)N1` (stereo in doubt; 14j-D2), the inhibition was determined as 23% in assay [8], 1% in assay [1], 1% in assay [3] and 5% in assay [4].

For the compound `CC1=C(C(=O)OC(C)C(F)(F)F)C(c2ccoc2)NC(=O)N1` (stereo in doubt; 14j-D1), the Ki in assay [2] came out at 234 nM.

With `CC1=C(C(=O)OC(C(F)(F)F)C(F)(F)F)C(c2ccco2)NC(=O)N1` (racemic), the inhibition in assay [8] turned out to be 1%; in assay [1], 1%; in assay [3], 6%; in assay [4] it was 2%.

Consider `CC1=C(C(=O)O[C@H](C)C(F)(F)F)[C@@H](c2ccco2)n2c(nc3ccccc32)N1`, for which the results for the inhibition in assay [1], in assay [3] and in assay [4] were 1%, 12% and 14%, respectively. For the same compound, the Ki in assay [2] was 6.91 nM.
